Assay results as given in patent US10508088B2, “Methods using HDAC11 inhibitors” (FORMA Therapeutics, Inc., priority 2016, dated 2019).

How the values were obtained:
[1] = system: STAT3 phosphorylation in HEL 92.1.7 cells; experiment: STAT3 and STAT5 phosphorylation western blot assay; type: cell-based; conditions: HEL 92.1.7, western blot
Method: (§1) The effects of selective HDAC11 inhibition on STAT3 and […] phosphorylation in HEL 92.1.7 cells were determined by western blot. Cells were treated with HDAC11 inhibitors and lysed in RIPA buffer (Sigma-Aldrich, St. Louis, Mo.) supplemented with protease inhibitors (Roche, Basel, Switzerland) and phosphatase inhibitors (Sigma P5726). Protein concentrations were determined with Pierce BCA protein assay kit (Thermo Fisher Scientific, Waltham, Mass.). Proteins were separated on a 4-12% Bis-Tris gradient electrophoresis gel (Life Technologies, Carlsbad, Calif.) and transferred onto a nitrocellulose membrane. The membrane was then blocked in either 5% nonfat dry milk or 5% BSA followed by incubation with primary antibodies at 4° C. overnight. Antibodies for p-STAT5 (Abcam 32364), STAT5 (Cell Signaling 9358), p-STAT3 (Cell Signaling 9145) and STAT3 (Cell Signaling 9139) were used. β-actin was used as loading control.

[2] = system: STAT5 phosphorylation in HEL 92.1.7 cells; experiment: STAT3 and STAT5 phosphorylation western blot assay; type: cell-based; conditions: HEL 92.1.7, western blot
Method: as §1

HEL 92.1.7 cells = experiment: Cell proliferation assay (CCK8); type: cell-based; conditions: HEL 92.1.7, 48 h
Method: This example describes inhibition of in vitro cell proliferation with exemplary HDAC11 inhibitors. The effects of selective HDAC11 inhibitors on cell proliferation were measured in cell lines containing the MPN-associated mutations MPL W515L (Ba/F3 MPL W515L) and JAK2 V617F (Ba/F3 JAK2 V617F, HEL 92.1.7, SET-2). HEL 92.1.7 and SET-2 cells were purchased from the ATCC and DSMZ, respectively. Ba/F3 cells overexpressing either MPLW515L or JAK2V617F, which were cytokine independent, were generated by transforming Ba/F3 cells with retroviruses overexpressing either MPL W515L or JAK2V617F. For survival assays, cells were seeded in 96-well plates at the density of 0.1 million/ml with addition of indicated compounds and incubated at 37° C. for 48 h. CCK8 solution (Dojindo, Rockville, Md.) was added and absorbance at 450 nm was measured after 3 hours of incubation. Readings were normalized to dimethylsulfoxide (DMSO)-treated wells.

[3] = target: HDAC3 co-expressed with nuclear receptor corepressor (Ncor2) (Homo sapiens (Human), UniProt O15379); experiment: HDAC inhibition assay, electrophoretic mobility shift (Nanosyn); conditions: read-out: HDAC Biochemical IC50 HDAC3
Method: (§2) This example describes in vitro inhibition properties of exemplary HDAC11 inhibitors for various HDACs. HDAC inhibition assays were performed using an electrophoretic mobility shift assay at Nanosyn, Inc. (Santa Clara, Calif.). Full length human recombinant HDAC proteins were expressed in the baculoviral system and purified by affinity chromatography. A human recombinant HDAC3 was co-expressed with nuclear receptor corepressor (Ncor2). The following peptide substrates were used: FAM-RHKK(Ac)-NH2 for HDAC3, HDAC6 and HDAC8; FITC-H3K27(Ac)-NH2 for HDAC1, HDAC2 and HDAC10; FAM-RHKK(tri-fluor-Ac)-NH2 for HDAC4, HDAC5, HDAC7, HDAC9 and HDAC11. Reactions consisting of compound, enzyme, and substrate were performed in reaction buffer (comprised of 100 mM HEPES, pH7.5, 25 mM KCl, 0.1% bovine serum albumin, 0.01% Triton X-100) at 25° C. and quenched by the addition of termination buffer (100 mM HEPES, pH7.5, 0.01% Triton X-100, 0.05% SDS). The fluorescence intensity of the electrophoretically separated de-acetylated product and substrate peptide were measured and analyzed using the LabChip® 3000 microfluidic electrophoresis instrument (Perkin Elmer/Caliper Life Sciences). The IC50 values of inhibitors were determined by fitting the %-inhibition curves with 4 parameter dose-response model using XLfit 4 software (IDBS).

HDAC8 = HDAC8 (Homo sapiens (Human), UniProt Q9BY41); experiment: as above; conditions: read-out: HDAC Biochemical IC50 HDAC8
Method: as §2

HDAC5 = HDAC5 (Homo sapiens (Human), UniProt Q9UQL6); experiment: as above; conditions: read-out: HDAC Biochemical IC50 HDAC5
Method: as §2

HDAC4 = HDAC4 (Homo sapiens (Human), UniProt P56524); experiment: as above; conditions: read-out: HDAC Biochemical IC50 HDAC4
Method: as §2

HDAC1 = HDAC1 (Homo sapiens (Human), UniProt Q13547); experiment: as above; conditions: read-out: HDAC Biochemical IC50 HDAC1
Method: as §2

HDAC10 = HDAC10 (Homo sapiens (Human), UniProt Q969S8); experiment: as above; conditions: read-out: HDAC Biochemical IC50 HDAC10
Method: as §2

HDAC6 = HDAC6 (Homo sapiens (Human), UniProt Q9UBN7); experiment: as above; conditions: read-out: HDAC Biochemical IC50 HDAC6
Method: as §2

HDAC7 = HDAC7 (Homo sapiens (Human), UniProt Q8WUI4); experiment: as above; conditions: read-out: HDAC Biochemical IC50 HDAC7
Method: as §2

HDAC9 = HDAC9 (Homo sapiens (Human), UniProt Q9UKV0); experiment: as above; conditions: read-out: HDAC Biochemical IC50 HDAC9
Method: as §2

HDAC2 = HDAC2 (Homo sapiens (Human), UniProt Q92769); experiment: as above; conditions: read-out: HDAC Biochemical IC50 HDAC2
Method: as §2

[4] = system: primary CAFs from human lung cancer; experiment: Co-culture assay with cancer cells and cancer associated fibroblasts; type: cell-based; conditions: 1:1 co-culture with H1650
Method: (§3) The effects of selective HDAC11 inhibition on cancer cells and cancer associated fibroblasts (CAFs) were determined in a co-culture assay. The cells were first trypsinized and collected in serum containing medium and were further incubated in same media at 37° C. for 15-20 min for recovery. The cells were resuspended in serum free media at 1×10^6 cells/ml density and stained with 10 uM of cytotracker green (Cancer associated fibroblasts) or cytotracker red dye (H1650 cells) (Life Technologies Inc) at 37° C. for 90 min. The stained cells were washed twice with serum free medium to remove excess dye at 1500 rpm for 5 min. The cytotracker green stained CAFs were mixed with cytotracker red stained H1650 cells in 1:1 ratio and grown in 96-well tissue culture plate overnight. The HDAC11 inhibitors were then added to the mixed adhered cells (CAFs+H1650) at appropriate concentrations. The images were taken on Day 0 and after every 24 hours using EVOS FL microscope system and EVOS software (Life Technologies Inc).

[5] = system: H1650 cells co-cultured with primary CAFs; experiment: as above; type: cell-based; conditions: 1:1 co-culture
Method: as §3

Chain of HDAC7 (Q8WUI4 whole entry): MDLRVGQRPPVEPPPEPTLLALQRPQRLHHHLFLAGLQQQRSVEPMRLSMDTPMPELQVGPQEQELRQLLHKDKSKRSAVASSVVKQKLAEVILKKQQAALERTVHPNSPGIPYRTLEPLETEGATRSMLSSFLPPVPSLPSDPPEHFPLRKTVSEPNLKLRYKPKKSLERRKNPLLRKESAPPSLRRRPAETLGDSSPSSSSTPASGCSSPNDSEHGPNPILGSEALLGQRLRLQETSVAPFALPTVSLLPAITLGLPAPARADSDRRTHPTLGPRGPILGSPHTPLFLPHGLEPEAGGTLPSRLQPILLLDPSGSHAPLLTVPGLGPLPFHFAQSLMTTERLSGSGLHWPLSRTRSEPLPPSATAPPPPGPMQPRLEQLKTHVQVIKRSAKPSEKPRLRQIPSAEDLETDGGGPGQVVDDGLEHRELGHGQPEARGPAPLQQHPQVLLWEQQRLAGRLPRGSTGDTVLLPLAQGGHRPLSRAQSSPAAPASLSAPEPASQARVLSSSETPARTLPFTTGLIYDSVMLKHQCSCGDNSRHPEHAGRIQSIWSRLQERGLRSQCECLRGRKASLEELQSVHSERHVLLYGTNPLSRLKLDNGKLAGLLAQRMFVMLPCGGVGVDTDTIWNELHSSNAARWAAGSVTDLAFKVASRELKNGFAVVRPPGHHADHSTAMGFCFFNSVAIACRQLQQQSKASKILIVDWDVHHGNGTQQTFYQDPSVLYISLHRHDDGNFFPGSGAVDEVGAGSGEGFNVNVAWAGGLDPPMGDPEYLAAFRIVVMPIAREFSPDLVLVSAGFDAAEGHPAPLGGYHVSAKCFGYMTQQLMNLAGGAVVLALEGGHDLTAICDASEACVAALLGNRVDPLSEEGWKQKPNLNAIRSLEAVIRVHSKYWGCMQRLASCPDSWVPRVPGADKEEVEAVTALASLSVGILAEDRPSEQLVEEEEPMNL
Chain of HDAC6 (Q9UBN7 whole entry): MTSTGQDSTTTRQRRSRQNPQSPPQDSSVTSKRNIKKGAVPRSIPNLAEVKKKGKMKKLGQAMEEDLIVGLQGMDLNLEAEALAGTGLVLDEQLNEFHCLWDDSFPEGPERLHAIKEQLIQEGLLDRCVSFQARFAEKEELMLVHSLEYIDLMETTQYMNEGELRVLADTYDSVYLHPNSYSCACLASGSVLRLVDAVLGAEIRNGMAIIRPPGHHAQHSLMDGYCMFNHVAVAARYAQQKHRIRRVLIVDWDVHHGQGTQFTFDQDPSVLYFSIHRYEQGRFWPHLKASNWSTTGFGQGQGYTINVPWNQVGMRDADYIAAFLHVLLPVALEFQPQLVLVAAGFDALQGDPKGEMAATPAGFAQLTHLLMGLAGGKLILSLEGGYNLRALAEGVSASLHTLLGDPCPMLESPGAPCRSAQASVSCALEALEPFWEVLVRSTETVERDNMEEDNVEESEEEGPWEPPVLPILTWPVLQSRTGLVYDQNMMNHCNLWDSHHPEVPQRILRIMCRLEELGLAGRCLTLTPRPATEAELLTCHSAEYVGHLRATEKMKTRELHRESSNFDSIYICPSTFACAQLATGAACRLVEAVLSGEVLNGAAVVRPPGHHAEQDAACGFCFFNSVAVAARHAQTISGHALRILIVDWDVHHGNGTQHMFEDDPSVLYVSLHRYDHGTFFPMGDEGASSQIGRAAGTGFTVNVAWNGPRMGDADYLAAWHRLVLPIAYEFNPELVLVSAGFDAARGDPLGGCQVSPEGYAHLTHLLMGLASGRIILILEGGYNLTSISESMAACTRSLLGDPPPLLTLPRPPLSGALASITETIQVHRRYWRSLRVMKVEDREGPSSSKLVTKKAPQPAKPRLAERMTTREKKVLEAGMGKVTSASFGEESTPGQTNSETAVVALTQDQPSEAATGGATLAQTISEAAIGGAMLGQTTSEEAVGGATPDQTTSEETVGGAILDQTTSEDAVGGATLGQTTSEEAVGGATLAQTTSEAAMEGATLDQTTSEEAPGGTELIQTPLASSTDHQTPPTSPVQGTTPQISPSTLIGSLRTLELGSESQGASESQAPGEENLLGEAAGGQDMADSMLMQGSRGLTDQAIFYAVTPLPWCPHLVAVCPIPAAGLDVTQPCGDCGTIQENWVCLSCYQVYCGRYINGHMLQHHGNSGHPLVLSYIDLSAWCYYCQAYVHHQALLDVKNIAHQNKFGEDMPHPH
Chain of HDAC9 (Q9UKV0 whole entry): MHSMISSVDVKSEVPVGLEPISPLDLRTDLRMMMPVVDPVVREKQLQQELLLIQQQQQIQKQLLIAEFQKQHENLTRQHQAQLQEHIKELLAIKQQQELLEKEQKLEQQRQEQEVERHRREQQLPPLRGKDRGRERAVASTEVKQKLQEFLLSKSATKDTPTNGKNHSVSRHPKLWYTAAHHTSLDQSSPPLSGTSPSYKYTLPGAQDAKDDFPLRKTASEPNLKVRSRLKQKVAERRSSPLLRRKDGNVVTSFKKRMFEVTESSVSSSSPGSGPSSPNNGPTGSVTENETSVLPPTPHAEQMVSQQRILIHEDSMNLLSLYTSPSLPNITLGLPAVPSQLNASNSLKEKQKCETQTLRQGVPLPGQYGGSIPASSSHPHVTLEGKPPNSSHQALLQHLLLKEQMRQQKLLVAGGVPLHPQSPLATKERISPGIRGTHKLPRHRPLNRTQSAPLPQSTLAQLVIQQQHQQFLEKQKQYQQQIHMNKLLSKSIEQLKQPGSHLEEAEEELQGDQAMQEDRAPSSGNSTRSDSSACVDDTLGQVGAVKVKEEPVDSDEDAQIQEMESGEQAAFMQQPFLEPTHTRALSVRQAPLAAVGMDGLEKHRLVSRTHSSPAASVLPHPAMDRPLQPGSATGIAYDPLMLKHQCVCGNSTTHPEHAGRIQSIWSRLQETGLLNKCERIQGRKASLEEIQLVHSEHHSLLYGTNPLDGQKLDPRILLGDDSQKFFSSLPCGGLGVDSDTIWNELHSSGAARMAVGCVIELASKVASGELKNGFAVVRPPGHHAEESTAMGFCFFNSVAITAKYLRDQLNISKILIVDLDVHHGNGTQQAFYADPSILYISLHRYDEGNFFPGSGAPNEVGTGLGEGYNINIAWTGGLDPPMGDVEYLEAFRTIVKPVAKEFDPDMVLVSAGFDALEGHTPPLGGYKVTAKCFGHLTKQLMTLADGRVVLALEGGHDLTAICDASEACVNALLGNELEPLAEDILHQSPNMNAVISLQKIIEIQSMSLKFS
Chain of HDAC1 (Q13547 whole entry): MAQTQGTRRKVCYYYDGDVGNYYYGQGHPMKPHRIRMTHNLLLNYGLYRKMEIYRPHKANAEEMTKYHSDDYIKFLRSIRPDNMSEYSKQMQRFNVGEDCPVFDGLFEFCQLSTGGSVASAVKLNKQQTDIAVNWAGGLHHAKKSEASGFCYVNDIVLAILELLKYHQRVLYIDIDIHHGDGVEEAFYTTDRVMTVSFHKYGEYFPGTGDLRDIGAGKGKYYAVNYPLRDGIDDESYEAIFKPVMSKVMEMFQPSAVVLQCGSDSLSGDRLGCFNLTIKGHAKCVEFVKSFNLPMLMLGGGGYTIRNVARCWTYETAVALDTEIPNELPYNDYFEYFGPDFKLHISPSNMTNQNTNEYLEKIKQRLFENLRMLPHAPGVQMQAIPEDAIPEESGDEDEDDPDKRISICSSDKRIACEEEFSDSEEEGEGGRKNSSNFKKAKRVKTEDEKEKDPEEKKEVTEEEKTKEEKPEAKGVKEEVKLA
Chain of HDAC10 (Q969S8 whole entry): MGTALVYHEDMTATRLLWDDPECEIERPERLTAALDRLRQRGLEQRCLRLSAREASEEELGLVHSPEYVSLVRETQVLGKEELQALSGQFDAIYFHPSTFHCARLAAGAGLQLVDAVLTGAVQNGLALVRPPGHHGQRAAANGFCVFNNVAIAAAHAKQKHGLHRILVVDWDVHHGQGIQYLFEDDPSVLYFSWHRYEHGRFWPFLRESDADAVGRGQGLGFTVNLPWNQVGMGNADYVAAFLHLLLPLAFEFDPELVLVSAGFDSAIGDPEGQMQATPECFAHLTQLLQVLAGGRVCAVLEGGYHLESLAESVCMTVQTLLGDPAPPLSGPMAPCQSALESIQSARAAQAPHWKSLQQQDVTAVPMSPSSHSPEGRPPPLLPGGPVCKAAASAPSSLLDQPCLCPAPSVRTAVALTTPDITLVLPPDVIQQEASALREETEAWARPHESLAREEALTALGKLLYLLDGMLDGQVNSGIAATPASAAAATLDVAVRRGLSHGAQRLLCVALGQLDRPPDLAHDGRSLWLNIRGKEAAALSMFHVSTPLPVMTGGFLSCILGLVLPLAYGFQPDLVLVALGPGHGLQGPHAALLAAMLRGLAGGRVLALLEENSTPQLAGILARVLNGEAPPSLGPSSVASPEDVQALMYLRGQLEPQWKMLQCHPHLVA
Chain of HDAC3 co-expressed with nuclear receptor corepressor (Ncor2) (O15379 whole entry): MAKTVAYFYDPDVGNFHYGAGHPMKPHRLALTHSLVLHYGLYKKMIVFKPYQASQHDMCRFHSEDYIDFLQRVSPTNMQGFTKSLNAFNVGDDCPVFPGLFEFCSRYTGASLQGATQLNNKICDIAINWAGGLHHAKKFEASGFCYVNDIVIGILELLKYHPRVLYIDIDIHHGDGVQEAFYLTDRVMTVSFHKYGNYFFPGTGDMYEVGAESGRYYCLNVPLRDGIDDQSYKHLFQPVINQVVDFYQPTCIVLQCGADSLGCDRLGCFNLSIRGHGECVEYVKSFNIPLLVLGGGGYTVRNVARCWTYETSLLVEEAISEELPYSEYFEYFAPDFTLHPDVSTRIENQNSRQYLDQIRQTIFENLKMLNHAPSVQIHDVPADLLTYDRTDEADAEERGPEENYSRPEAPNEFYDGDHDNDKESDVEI
Chain of HDAC3 co-expressed with nuclear receptor corepressor (Ncor2) (Q9Y618 395-489 partner): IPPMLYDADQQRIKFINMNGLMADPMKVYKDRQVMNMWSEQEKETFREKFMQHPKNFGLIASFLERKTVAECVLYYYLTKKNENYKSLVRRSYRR

| SMILES | STAT3 phosphorylation [1] | STAT5 phosphorylation [2] | growth of the HEL 92.1.7 cell line (HEL 92.1.7 cells) | IC50 [3] [µM] | IC50 (HDAC8) [µM] | IC50 (HDAC5) [µM] | IC50 (HDAC4) [µM] | IC50 (HDAC1) [µM] | IC50 (HDAC10) [µM] | IC50 (HDAC6) [µM] | IC50 (HDAC7) [µM] | IC50 (HDAC9) [µM] | IC50 (HDAC2) [µM] | effects on CAFs [4] | growth of H1650 cells co-cultured with primary CAFs [5] |
| --- | --- | --- | --- | --- | --- | --- | --- | --- | --- | --- | --- | --- | --- | --- | --- |
| O=C(NO)c1cccc(Nc2nc3cc(Cl)c(Cl)cc3o2)c1 [HDTK010, 3-((5,6-dichlorobenzo[d]oxazol-2-yl)amino)-N-hydroxybenzamide] | inhibited | inhibited | inhibited the growth | > 10 | 0.5 to 1 | > 10 | > 10 | > 10 | > 10 | 0.5 to 1 | 5 to 10 | > 10 | > 10 |  |  |
| O=C(NO)c1cccc2c1C[C@]1(CCN(Cc3ccc(Cl)c(C(F)(F)F)c3)C1=O)C2 [HDTK054, (S)-1′-(4-chloro-3-(trifluoromethyl)benzyl)-N-hydroxy-2′-oxo-1,3-dihydrospiro[indene-2,3′-pyrrolidine]-4-carboxamide] |  |  |  | > 10 | 5 to 10 | > 10 | > 10 | > 10 | > 10 | > 10 | > 10 | > 10 | > 10 | minimal effects | inhibit the growth |
